# Test results published in paper PMC9645390, “Amphiphilic stilbene derivatives attenuate the neurotoxicity of soluble Aβ42 oligomers by controlling their interactions with cell membranes” (Chemical Science, 2022).
# Tests used:
# SH-SY5Y cells = assay: Cell toxicity studies in SH-SY5Y cells; type: cell-based, human; settings: 10 µM
# From the text: Encouraged by the ability of the developed amphiphilic compounds to attenuate the neurotoxicity of Cu–Aβ species, we sought out to study the possible molecular mechanisms for this beneficial effect. The Aβ oligomers were reported to interact with cell membranes in various ways, such as binding to receptors on cell membranes,[49,50] inserting into membranes,[51] or even showing cellular uptake via endocytosis.[52] The abnormal interactions between Aβ oligomers and neuron cells, which could disrupt the neuronal ion homeostasis and neuron cell membrane integrity, might be why Aβ oligomers are highly neurotoxic.[53–55] Moreover, molecules that can disrupt interactions between oligomers and cell membranes are promising candidates for drug development.[56,57] Thus, we proceeded to probe the interactions of the Aβ42 oligomers with SH-SY5Y cellular membranes, in the absence and presence of the compounds, via confocal microscopy. […] Moreover, a lower concentration of Aβ42 (5 μM) or Aβ42–Cu (5 μM) were chosen to avoid significant cell death (Fig. S9b ^†). Before investigating the neuroprotective effect of our compounds, we have also confirmed that Aβ aggregates interact tightly with the cell membranes, as shown via co-staining with a membrane specific dye (Fig. S10 ^†). Subsequently, SH-SY5Y cells were treated with Aβ oligomers or a combination of Aβ oligomers and compounds for 24 h, followed by the immunofluorescence staining with the CF594-labeled anti-Aβ antibody HJ 3.4 (Fig. 10) and nuclei staining, shown in the red and blue channels, respectively. Compared to the untreated group, the Aβ oligomers were found mainly bound to cell membranes. […] To understand this unusual behavior, we posited that the Aβ oligomers would start the fibrilization process when incubated in the cell media. […] Therefore, we proceeded to probe if our compounds could prevent the binding of Aβ fibrils to cell membranes. […] Given these encouraging results, we moved to study if the amphiphilic compounds can further control the interactions between Cu–Aβ species and cell membranes. Firstly, when SH-SY5Y cells were treated with Aβ monomers for 48 h, the aggregated Aβ species interacting with cell membranes were observed (Fig. 11a). […] However, these aggregates are still smaller than the insoluble fibrils (Fig. S11 ^†), indicating they are still soluble oligomeric Aβ species.
# 11. Cell toxicity studies in SH-SY5Y cells
# Figure S9. Cell toxicity studies in SH-SY5Y cells. a) [ZY- 12-MT] = [ZY-15-OMe] = [ZY-15-MT] = [ZY-5-OMe] =
# 10 µM. b) Average cell numbers in presence of 5 µM Aβ42 monomer, 5 µM (Aβ42 monomer + Cu2+), 5 µM (Aβ42
# monomer + Cu2+ + ZY-15-MT) and 5 µM (Aβ42 monomer + Cu2+ + ZY-15-OMe).
# (1 picture or pasted object on this page, not shown here)
# Aβ42 fibrils = biological target: T1, Aβ42 fibrils (Homo sapiens, UniProt P05067); assay: Fluorescence saturation binding assay with Aβ42 fibrils; settings: Aβ42 fibrils; for Kd: 10 mM PBS pH 7.4, one site-specific binding model, read-out: Kd, Fibrils; for binding ratio, Fibrils: from cross point between plateau and initial slope
# T1 construct: 1 mg of commercial Aβ42 monomer powder (from GL biochem) was dissolved in 1; purchased GL biochem
# Method: (§1) Fig. 3 Binding constant measurements of ZY-5-OMe (left), ZY-5-MT (middle), ZY-5-DT (right) with Aβ42 fibrils (top), and oligomers (bottom). The measurements were performed in 10 mM phosphate buffered saline (PBS), pH 7.4. The Kd curves were fitted in GraphPad Prism with one site-specific binding model. Equation: Y = Bmax × X/(Kd + X). [Aβ42 fibrils] = [Aβ42 oligomers] = 5 μM.
# (§2) Preparation of the Aβ42 Fibrils and Aβ42 Oligomers
# (§3) Aβ42 fibrils: 1 mg of commercial Aβ42 monomer powder (from GL biochem) was dissolved in 1
# (§4) mL 1,1,1,3,3,3-hexafluoro-2-propanol (HFIP) at room temperature and incubated for 1h. The
# (§5) resulting solution was divided equally into two Eppendorf tubes. The solution in each Eppendorf
# (§6) tube containing 0.5 mg Aβ42 monomer was then evaporated overnight and dried by vacuum
# (§7) centrifuge to generate monomeric films. 100 μM Aβ42 fibrils solution was prepared by dissolving
# (§8) the 0.5 mg monomeric films in 1.1 mL PBS buffer (with final DMSO concentration less than 1%)
# (§9) and stiring at 37 °C for 3 days.
# (§10) Aβ42 oligomers: The 0.5 mg monomeric films were dissolved in 1.1 mL PBS buffer (with final
# (§11) DMSO concentration less than 1%) and incubated at 4 °C overnight. The resulting solution was
# (§12) then centrifuged at 3000 rpm for 15 mins to remove the insoluble aggregates. The clear supernatant
# (§13) was then used for the following experiments. […]
# (§14) In Vitro Saturation Binding Studies with Aβ42 Fibrils and Aβ42 Oligomers
# (§15) To a solution of increasing concentrations of compounds, a fixed concentration of the generated
# (§16) aggregated Aβ42 fibrils or Aβ42 oligomers solutions (5 to 15 μM) was added to yield a total volume
# (§17) of 100 μL. Nonspecific binding was determined without compounds. The mixture was incubated
# (§18) for 15 min at room temperature. All fluorescence data were obtained on a SpectraMax M2e plate
# (§19) reader (Molecular Devices).
# [1] = Log D by octanol-PBS partition assay; type: physicochemical; settings: pH 7.4, fluorescence readout
# Method: In order to confirm that the compounds can also bind to native Aβ species, brain sections collected from 9-month-old 5xFAD transgenic mice have been employed in the fluorescence imaging studies. […] The brain sections were first incubated with our compounds, followed by Congo Red (CR), which is a well-established fluorescent probe that can bind to Aβ plaques.[34] The treated brain sections were then imaged using fluorescence microscope. […] Immunostaining with the CF594-conjugated HJ 3.4 antibody (CF594-HJ3.4) was also performed to confirm that these six compounds can bind to Aβ species specifically in the brain sections (Fig. 5). Moreover, the log D values of the compounds were also measured by octanol-PBS partition assays.[35] […]
# The Log D value was measured following a published procedure using slight modifications.4 In general, compounds in 0.5 mL octanol was subjected to partition with 0.5 mL octanol-saturated
# PBS. The whole mixture was stirred vigorously for 5 min, and centrifuged at 2,000 rpm for 5 min.
# The top octanol layer was separated for later fluorescence measurement. The remaining PBS layer was partitioned with 0.5 mL PBS-saturated octanol, and the second top octanol layer was then separated after vigorous stirring and centrifuging at 2,000 rpm for another 5 min. The two octanol layers’ fluorescence spectra were recorded. The log D value was calculated by the fluorescence intensity ratio at the compounds’ emission wavelength for the above two octanol extractions. […]
# Aβ42 oligomers = biological target: T2, Aβ42 oligomers (Homo sapiens, UniProt P05067); assay: Fluorescence saturation binding assay with Aβ42 oligomers; settings: for Kd / binding ratio, Oligomers: Aβ42 oligomers; for Kd: 10 mM PBS pH 7.4, one site-specific binding model; for binding ratio, Oligomers: from cross point between plateau and initial slope; for binding preference oligomers vs fibrils (from Kd values): lower Kd for Aβ oligomers than Aβ fibrils
# T2 construct: 1 mg of commercial Aβ42 monomer powder (from GL biochem) was dissolved in 1; purchased GL biochem
# Method: as §1, §2, §3, §4, §5, §6, §7, §8, §9, §10, §11, §12, §13, §14, §15, §16, §17, §18, §19
# T2 sequence (P05067 672-713 limits assumed): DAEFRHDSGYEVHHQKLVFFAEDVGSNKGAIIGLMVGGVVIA
# T1 sequence (P05067 672-713 limits assumed): as above
Structure (SMILES),toxicity towards SH-SY5Y cells (in words) (SH-SY5Y cells),Kd (Aβ42 fibrils),"binding ratio, Fibrils (Aβ42 fibrils)",logD [1],Kd (Aβ42 oligomers),"binding ratio, Oligomers (Aβ42 oligomers)",binding preference oligomers vs fibrils (from Kd values) (Aβ42 oligomers)
COc1cc(/C=C/c2ccc(-c3ccc(C=O)cc3)s2)cc(CN2CCN(C)CCN(C)CC2)c1O [ZY-15-OMe],not toxic towards SH-SY5Y cells,1240 nM,3.0,1.053 ± 0.002,470 nM,8.1,higher binding affinity to oligomers over fibrils
CN1CCN(C)CCN(Cc2cc(-c3ccc(/C=C/c4ccc(N(C)C)cc4)s3)ccc2O)CC1 [ZY-12-MT],not toxic towards SH-SY5Y cells,4190 nM,1.3,0.83 ± 0.035,6270 nM,1.0,
COc1cc(OC)cc(-c2ccc(/C=C/c3cc(CN4CCN(C)CCN(C)CC4)c(O)c(OC)c3)cc2)c1 [ZY-17-OMe],,180 nM,21.9,0.732 ± 0.019,120 nM,46.7,higher binding affinity to oligomers over fibrils
COc1cc(OC)cc(-c2ccc(/C=C/c3cc(CN4CCN(C)CCN(C)CC4)c(O)c(CN4CCN(C)CCN(C)CC4)c3)cc2)c1 [ZY-17-DT],,2250 nM,1.1,0.606 ± 0.032,1030 nM,33.3,higher binding affinity to oligomers over fibrils
CN1CCN(C)CCN(Cc2cc(/C=C/c3ccc(-c4ccc(C=O)cc4)s3)ccc2O)CC1 [ZY-15-MT],not toxic towards SH-SY5Y cells,530 nM,10.0,1.11 ± 0.021,2030 nM,2.5,
COc1cc(/C=C/c2ccc(-c3ccc(N(C)C)cc3)s2)cc(CN2CCN(C)CCN(C)CC2)c1O [ZY-5-OMe],not toxic towards SH-SY5Y cells,680 nM,5.6,1.18 ± 0.046,1040 nM,4.0,
